Experimental data: patent EP0983275B1, “NOVEL TRIPTOLIDE DERIVATIVES USEFUL IN THE TREATMENT OF AUTOIMMUNE DISEASES” (priority 1997, dated 1998)
Values after ≈ are worked out from the molar mass of the structure shown.

Key:
[1] = system: adjuvant-induced arthritis; assay: Anti-inflammatory activity in the rat model of adjuvant-induced arthritis; type: in vivo, Male Wistar-Lewis rats; settings: 12 consecutive days
Protocol: Following generally the procedure of Pearson and Wood, Arth. Rheum., 2, 44 (1959), the anti-inflammatory activity of the following compounds was determined in a rat model of adjuvant-induced arthritis. Male Wistar-Lewis rats (Mollegaard, Breeding Centre Ltd, BIBY, DK 4623 LI, SKENSVED, P.P. Box 28, DK) with a body weight between 160 g and 200 g are used. Freund's adjuvant (0.1 mL, 6 mg Mycobacterium smegmatis suspension per mL in heavy white paraffin oil, Merck/Darmstadt) was injected into the base of the tail. […] The animals received standardized food Altromin-R (Altrogge, Lage) and had free access to water. The compounds were administered i.p. (a suspension in carboxymethyl cellulose solution in an injection volume of 0.5 mL/100 g body weight) on 12 consecutive days, starting with the day of the adjuvant injection. On day 1 and day 18 of the study, the volume of both hind paws and the body weight were recorded, and in addition on day 18 the arthritis index.

Jurkat E6-1 cell line = assay: Cell viability (MTT mitochondrial enzyme assay); type: cell-based, human; settings: cells of the IL-2 assay after removal of supernatant, MTT 4 hours at 37°C
Protocol: (§1) Jurkat E6-1 cell line (ATCC), a human leukemic T cell line or lymphocytes prepared from fresh human blood, are grown in complete culture medium consisting of RPMI-1640 (Mediatech) supplemented with 10% v/v fetal bovine serum (HyClone, Logen, Vermont), penicillin (100 units/mL), streptomycin ([…]), and 2mM L-glutamine (GIBCO, Grand Island, New York). The cells are grown to a concentration of between 1.2 to 1.8 X 10^6 cells/mL before use. The cells are then centrifuged at low speed and resuspended to a concentration of 1.25 X 10^6 cells/mL in fresh medium.
(§2) The compounds to be tested are dissolved in DMSO, and water is added to make a 50% DMSO/water solution. The compounds are then diluted in sterile water such that the DMSO concentrations are less then 0.05%. The cells at a concentration of 1.25 X 10^6 cells/mL are stimulated with phytohemagglutinin 10 µg/mL (PHA) and 10^-8 M phorbol ester (12-O-tetradecanoylphorbol 13-acetate: TPA), (Sigma, St. Louis, Missouri). The compounds are then added and the cells are plated in flat-bottom tissue culture plates (Falcon, Lincoln Park, New Jersey), with 250,000 cells/well. Plates are then incubated at 37°C in a 5% CO2 atmosphere.
(§3) After incubation (16-24 hours), the cells are assayed for IL-2 production and cell viability (MTT). IL-2 production is assayed utilizing a solid phase ELISA immunoassay, sold in kit form by R&D Systems, Inc., Minneapolis, Minnesota.
Cell viability is measured by the use of a mitochondrial enzyme assay. After removal of the supernatant for the IL-2 assay, Cell Titer 96 (a commercial solution of MTT obtained from Promega, Madison, Wisconsin), is added to the plates and incubated for 4 hours at 37°C. A solubilization solution is then added and incubated overnight. The plates are then read on an ELISA plate reader at a wavelength of 570 nm. Table II presents the results for the Interleukin-2 assay, the cell viability assay and the ratio of cell viability/IL-2 inhibition.

IL-2 production = assay: Interleukin-2 assay (IL-2 production by ELISA after PHA/TPA stimulation); type: cell-based; settings: Jurkat E6-1 cells or human lymphocytes stimulated with PHA 10 µg/mL and 10^-8 M TPA; 16-24 hours
Protocol: as §1, §2, §3

[2] = Body weight change (weight gain) in the rat model of adjuvant-induced arthritis; type: in vivo, Male Wistar-Lewis rats; settings: 10 mg/kg/day i.p.; weight gain between day 1 and day 21
Protocol: Following generally the procedure of Pearson and Wood, Arth. Rheum., 2, 44 (1959), the anti-inflammatory activity of the following compounds was determined in a rat model of adjuvant-induced arthritis. Male Wistar-Lewis rats (Mollegaard, Breeding Centre Ltd, BIBY, DK 4623 LI, SKENSVED, P.P. Box 28, DK) with a body weight between 160 g and 200 g are used. Freund's adjuvant (0.1 mL, 6 mg Mycobacterium smegmatis suspension per mL in heavy white paraffin oil, Merck/Darmstadt) was injected into the base of the tail. Between day 10 and day 14 of the test, immunopathological processes let to chronic inflammation, especially in the form of arthritic and periarthritic symptoms in all parts of the body. The animals received standardized food Altromin-R (Altrogge, Lage) and had free access to water. The compounds were administered i.p. (a suspension in carboxymethyl cellulose solution in an injection volume of 0.5 mL/100 g body weight) on 12 consecutive days, starting with the day of the adjuvant injection. On day 1 and day 18 of the study, the volume of both hind paws and the body weight were recorded, and in addition on day 18 the arthritis index. Cyclosporin A and Prednisolone were used as standard compounds. In addition, table IV presents the percent change in body weight (weight gain) between day 1 and day 21 of the above test.

## C[C@]12C=CC(=O)C=C1CC[C@@H]1[C@@H]2[C@@H](O)C[C@@]2(C)[C@H]1CC[C@]2(O)C(=O)CO [Prednisolone]
[1]; 15 mg/kg/day i.p.
  % Inhibition: 100%

## [1S-(1α,2β,3α,3aβ,4aR*,4bα,11aα)]-3-chloro-1,2,3,3a,4b,5,6,9,9b,10,11,11a-dodecahydro-1,2,11a-trihydroxy-4b-methyl-2-(1-methylethyl)-7H-oxireno[4b,5]phenanthro[1,2-c]furan-7-one [Example 2]
Jurkat E6-1 cell line
  IC50/MTT: 0.55 mg/L
IL-2 production
  IC50/IL-2: 0.06 mg/L

## CC(C)C12OC1C1OC13C1(C)CCC4=C(COC4=O)C1CCC3(O)C2O (stereo not drawn) [Example 1, [5aR-(5aα,6α,6aα,7aα,7bβ,8aS*,8bα)]-3,3b,4,5,5a,6,6a,7a,7b,8b,9,10-dodecahydro-5a,6-dihydroxy-8b-methyl-6a-(1-methylethyl)-1H-bisoxireno[4b,5:6,7]phenanthro[1,2-c]furan-1-one]
Jurkat E6-1 cell line
  IC50/MTT: 0.3 to 0.5 mg/L
IL-2 production
  IC50/IL-2: 0.036 mg/L (≈ 0.0993 µM)
[2]
  % Change in Body Weight: 29.9%
[1]; 10 mg/kg/day i.p.
  % Inhibition: 90%

## CC(C)[C@]12O[C@H]1[C@@H]1O[C@]13[C@]1(O[C@H]1C[C@H]1C4=C(CC[C@@]13C)C(=O)OC4)[C@@H]2O [Triptolide]
Jurkat E6-1 cell line; Homo sapiens, Jurkat E6.1
  IC50: 0.005 mg/L (≈ 0.0139 µM)
IL-2 production
  IC50: 0.001 to 0.003 mg/L (≈ 0.00277 to 0.00832 µM)
[1]; 0.2 mg/kg/day i.p.
  % Inhibition: 70%
[1]; 0.4 mg/kg/day i.p.
  % Inhibition: 85%
[1]; 0.8 mg/kg/day i.p.
  % Inhibition: 76%
